Data from patent publication US8741803B2, “Pesticidal composition and method for controlling pest” (Kumiai Chemical Industry Co., Ltd., priority 2007, dated 2014).

Assays:
two-spotted spider mites [1] = experiment: Test Example 1: miticidal test on two-spotted spider mites (compound 6, flubendiamide and their mixture; soybean seedling dipping, 13 days); assay type: in vivo, Tetranychus urticae; settings: Flubendiamide alone, 50.0 ppm, 25° C.
Description: (§1) Each of the compound 6, flubendiamide, and a mixture of the compound 6 and flubendiamide was formulated into a wettable powder in accordance with Formulation Example 2. The respective formulations were diluted with water to an active ingredient concentration as identified in Table 15, and to the respective solutions, a spreader (KUMITEN manufactured by Kumiai Chemical Industry Co., Ltd.) was added at a concentration of 0.05% of the entire amount. Soybean seedlings which had been inoculated with imago two-spotted spider mites were dipped in each of the resulting solutions and dried in air. The seedlings were placed in a thermostatic chamber at 25° C. for 13 days, and the mite survivors were counted for calculation of the miticidal value by using Equation 2. The test was carried out by one series system. The predictive value in the Table was calculated based on the Colby formula (S. R. Colby (Weeds 15 (1967), 20-22) of Equation 1.
(§2) [formula] wherein X, Y and E are the following values.
(§3) X: The miticidal value of the component A at a predetermined concentration.
(§4) Y: The miticidal value of the component B at a predetermined concentration.
E: Predictive value (theoretical expected value) of the component A and the component B in combination at the respective predetermined concentrations. […]

two-spotted spider mites [2] = experiment: Test Example 2: miticidal test on two-spotted spider mites (compound 6, tebufenozide and their mixture; soybean seedling dipping, 13 days); assay type: in vivo, Tetranychus urticae; settings: Tebufenozide alone, 100.0 ppm, 25° C.
Source text: as §2, §3, §4
E: Predictive value (theoretical expected value) of the component A and the component B in combination at the respective predetermined concentrations.
(§5) When the practical miticidal value of the insecticide exceeds E (predictive value), a synergistic effect is obtained.
as §1, with “tebufenozide,” for “flubendiamide,”, “tebufenozide” for “flubendiamide”, “16,” for “15,”, “theoretical” for “predictive”, “formula” for “formula (S. R. Colby (Weeds 15 (1967), 20-22)”

cotton aphid = experiment: Test Example 3: insecticidal test on cotton aphid (compound 6, pyridalyl and their mixture; root zone irrigation of cucumber seedlings, 3 days); assay type: in vivo, Aphis qossypii; settings: Pyridalyl alone, 100.0 ppm, 25° C.
Description: as §2, §5
Each of the compound 6, pyridalyl, and a mixture of the compound 6 and pyridalyl was formulated into a wettable powder in accordance with Formulation Example 2. The respective formulations were diluted with water to an active ingredient concentration as identified in Table 17, and to the respective solutions, a spreader (KUMITEN manufactured by Kumiai Chemical Industry Co., Ltd.) was added at a concentration of 0.05% of the entire amount. The root zone of cucumber seedlings which had been inoculated with larvae of cotton aphid were irrigated with 5 mL of each of the solutions. The treated seedlings were placed in a thermostatic chamber at 25° C. for 3 days, and the survivors were counted for calculation of the insecticidal degree by Equation 3. The test was carried out by two series system. The predictive value in the Table was calculated based on the Colby formula of Equation 1.

Cc1cc(C(F)(C(F)(F)F)C(F)(F)F)ccc1NC(=O)c1cccc(I)c1C(=O)NC(C)(C)CS(C)(=O)=O [flubendiamide]
Miticidal value (two-spotted spider mites [1]): 13

CCc1ccc(C(=O)NN(C(=O)c2cc(C)cc(C)c2)C(C)(C)C)cc1 [tebufenozide]
Miticidal value (two-spotted spider mites [2]): 3

FC(F)(F)c1ccc(OCCCOc2c(Cl)cc(OCC=C(Cl)Cl)cc2Cl)nc1 [pyridalyl]
Insecticidal degree (cotton aphid): 10
